Key:
[1] = test system: human skin (forearms of 10 panelists); assay: Conductance measuring test; type: in vivo; conditions: for Conductance 30 min-after / Conductance 60 min-after / Conductance 120 min-after: 10% aqueous solution; for Conductance 30 min-after: 30 minutes after application; for Conductance 60 min-after: 60 minutes after application; for Conductance 120 min-after: 120 minutes after application
Description: (i) Conductance Measuring Test
Using forearms of 10 panelists, the skin conductance was measured before application and for 30 minutes, 60 minutes and 120 minutes after application, and the moisturizing effect was evaluated from a change rate thereof. The change rate of the skin conductance is calculated by the following equation (II): Conductance change rate=[…].
The change rate can be used for study of the influences on a water-absorbing property and a moisture retaining ability of a keratin layer. When this change rate is small, there is increase in the moisture in a keratin layer, thus, it can be evaluated that the moisturizing effect is high.
The evaluation criteria of conductance measuring test is as follows: • {circumflex over (◯)}: The average of conductance change rate of 10 panelists is not less than 0 and less than 0.1 • ◯: The average of conductance change rate of 10 panelists is not less than 0.1 and less than 0.2 • Δ: The average of conductance change rate of 10 panelists is not less than 0.2 and less than 0.5 • X: The average of conductance change rate of 10 panelists is not less than 0.5

[2] = test system: human skin (medial parts of brachiums); assay: Evaluation No.(7): Skin Stimulation Test B (smart feeling); type: in vivo
Description: (viii) Evaluation No.(7): Skin Stimulation Test B
A smart feeling when a sample applied on medial parts of brachiums of 10 panelists was graded based on the following criteria and, thereafter, an average was calculated: • 0: No smart feeling is perceived. • 1: Slight smart feeling or redness is perceived. • 2: Smart feeling or redness is perceived. • 3: Smart feeling and redness are perceived.
(§1) The evaluation criteria of skin stimulation test B is as follows: • {circumflex over (◯)}: The average of 10 panelists is not less than 0 and less than 0.1 • ◯: The average of 10 panelists is not less than 0.1 and less than 0.15 • Δ: The average of 10 panelists is not less than 0.15 and less than 0.2 • X: The average of 10 panelists is not less than 0.2

human skin [3] = assay: Evaluation No.(8): Refreshing Effect Durability; type: in vivo; conditions: for Refreshing feeling (8): basic composition B
Description: (ix) Evaluation No.(8): Refreshing Effect Durability A presence or absence of refreshing feeling for 120 minutes after use was evaluated by 10 special panelists. The evaluation criteria is as follows: • {circumflex over (◯)}: Not less than 8 special panelists recognized that there was refreshing feeling durability. • ◯: Not less than 6 and less than 8 special panelists recognized that there was refreshing feeling durability. • Δ: Not less than 3 and less than 6 special panelists recognized that there was refreshing feeling durability. • X: Less than 3 special panelists recognized that there was refreshing feeling durability.

human skin [4] = assay: Evaluation No.(3): Moisturizing Effect Feeling; type: in vivo; conditions: compound 5% by weight in basic composition A
Description: (iv) Evaluation No.(3): Moisturizing Effect Feeling Practical test on the presence or absence of the moisturizing effect feeling for 120 minutes after use was performed by using 10 special panelists. The evaluation criteria is as follows: • {circumflex over (◯)}: Not less than 8 special panelists recognized that there was the moisturizing effect feeling. • ◯: Not less than 6 and less than 8 special panelists recognized that there was the moisturizing effect feeling. • Δ: Not less than 3 and less than 6 special panelists recognized that there was the moisturizing effect feeling. • X: Less than 3 special panelists recognized that there was the moisturizing effect feeling.

rough skin on cheek = assay: Evaluation No.(4): Rough Skin Improving Effect Test; type: in vivo, human; conditions: compound 5% by weight in basic composition A
Description: (v) Evaluation No.(4): Rough Skin Improving Effect Test A rough skin improving effect test was performed by using 10 panelists having rough skin on cheek. According to a test schedule, different skin lotions were applied on left and right cheeks for 1 week, and the effect was determined on the next day after the last day of the test period. The evaluation criteria is as follows: • {circumflex over (◯)}: Not less than 8 panelists recognized that the rough skin was improved. • ◯: Not less than 6 and less than 8 panelists recognized that the rough skin was improved. • Δ: Not less than 3 and less than 6 panelists recognized that the rough skin was improved. • X: Less than 3 panelists recognized that the rough skin was improved.

[5] = test system: human skin (medial parts of brachiums); assay: Evaluation No.(5): Skin Stimulation Test A (occluding patch); type: in vivo; conditions: compound 5% by weight in basic composition A
Description: (iv) Evaluation No.(5): Skin Stimulation Test A
Occluding patch was performed on medial parts of brachiums of 10 panelists for 24 hours and, thereafter, an average was calculated based on the following criteria: • 0: No abnormality is perceived. • 1: Slight redness is perceived. • 2: Redness is perceived. • 3: Redness and papula are perceived.
as §1, with “A” for “B”

Compound	Conductance 30 min-after [1]	Conductance 60 min-after [1]	Conductance 120 min-after [1]	Evaluation in conductance measuring (120 min after) ([1]; Table 7, 5% alone in ion-exchange water 95%)	Stimulation B (7) ([2]; Table 11, tested compound 5.0 wt % in basic composition B (L-menthol 0.1))	Refreshing feeling durability (8) (human skin [3]; Table 11, tested compound 5.0 wt % in basic composition B (L-menthol 0.1), 120 minutes after use)	Moisturizing Evol. No. (3) (human skin [4]; Table 2, 120 minutes after use)	Evaluation (3) moisturizing effect feeling (human skin [4]; Table 4)	Rough skin Evol. No. (4) (rough skin on cheek; Table 2, applied 1 week)	Evaluation (4) rough skin improving effect (rough skin on cheek; Table 4)	Stimulation A Evol. No. (5) ([5]; Table 2, occluding patch 24 hours)	Evaluation (5) skin stimulation A ([5]; Table 4)	Stimulation B (7) ([2]; Table 12, basic composition B, tested compound 5.0 wt %)	Stimulation B (7) ([2]; Table 13, Y/X study, basic composition B)	Stimulation B (7) ([2]; Table 14, basic composition B, tested compound 5.0 wt %)	Refreshing feeling (8) (human skin [3]; Table 12, tested compound 5.0 wt %)	Refreshing feeling (8) (human skin [3]; Table 13, Y/X study)	Refreshing feeling (8) (human skin [3]; Table 14, tested compound 5.0 wt %)
CC(O)CCO (stereo not drawn) [1,3-Butylene glycol]	Δ (The average of conductance change rate of 10 panelists is not less than 0.2 and less than 0.5)	Δ (The average of conductance change rate of 10 panelists is not less than 0.2 and less than 0.5)	Δ (The average of conductance change rate of 10 panelists is not less than 0.2 and less than 0.5)	–	–	–	–	–	–	–	–	–	–	–	–	–	–	–
OCC(O)CO [Glycerin]	⊚ (The average of conductance change rate of 10 panelists is not less than 0 and less than 0.1)	◯ (The average of conductance change rate of 10 panelists is not less than 0.1 and less than 0.2)	◯ (The average of conductance change rate of 10 panelists is not less than 0.1 and less than 0.2)	Δ (The average of conductance change rate of 10 panelists is not less than 0.2 and less than 0.5)	Δ (The average of 10 panelists is not less than 0.15 and less than 0.2)	X (Less than 3 special panelists recognized that there was refreshing feeling durability.)	–	–	–	–	–	–	–	–	–	–	–	–
Polyoxyethylene (10) polyoxypropylene (10) dimethyl ether [Compound 2]	–	–	–	–	–	–	⊚ (Not less than 8 special panelists recognized that there was the moisturizing effect feeling.)	⊚ (Not less than 8 special panelists recognized that there was the moisturizing effect feeling.)	⊚ (Not less than 8 panelists recognized that the rough skin was improved.)	⊚ (Not less than 8 panelists recognized that the rough skin was improved.)	⊚ (The average of 10 panelists is not less than 0 and less than 0.1)	⊚ (The average of 10 panelists is not less than 0 and less than 0.1)	⊚ (The average of 10 panelists is not less than 0 and less than 0.1)	⊚ (The average of 10 panelists is not less than 0 and less than 0.1)	⊚ (The average of 10 panelists is not less than 0 and less than 0.1)	⊚ (Not less than 8 special panelists recognized that there was refreshing feeling durability.)	⊚ (Not less than 8 special panelists recognized that there was refreshing feeling durability.)	⊚ (Not less than 8 special panelists recognized that there was refreshing feeling durability.)
